Measured values reported in ChEMBL document CHEMBL1142332, “N-(3-(phenylcarbamoyl)arylpyrimidine)-5-carboxamides as potent and selective inhibitors of Lck: structure, synthesis and SAR” (Bioorg Med Chem Lett, 2008).
pIC50: −log10 of the molar value.

Legend:
[1] = biological target: Tyrosine-protein kinase Lck (Homo sapiens, UniProt P06239); assay: Inhibition of Lck by HTRF assay
[2] = biological target: Vascular endothelial growth factor receptor 2 (Homo sapiens, UniProt P35968); assay: Inhibition of KDR
[3] = biological target: T1, Tyrosine-protein kinase JAK3 (Homo sapiens, UniProt P52333); assay: Inhibition of Jak3
T1 sequence (P52333 whole entry): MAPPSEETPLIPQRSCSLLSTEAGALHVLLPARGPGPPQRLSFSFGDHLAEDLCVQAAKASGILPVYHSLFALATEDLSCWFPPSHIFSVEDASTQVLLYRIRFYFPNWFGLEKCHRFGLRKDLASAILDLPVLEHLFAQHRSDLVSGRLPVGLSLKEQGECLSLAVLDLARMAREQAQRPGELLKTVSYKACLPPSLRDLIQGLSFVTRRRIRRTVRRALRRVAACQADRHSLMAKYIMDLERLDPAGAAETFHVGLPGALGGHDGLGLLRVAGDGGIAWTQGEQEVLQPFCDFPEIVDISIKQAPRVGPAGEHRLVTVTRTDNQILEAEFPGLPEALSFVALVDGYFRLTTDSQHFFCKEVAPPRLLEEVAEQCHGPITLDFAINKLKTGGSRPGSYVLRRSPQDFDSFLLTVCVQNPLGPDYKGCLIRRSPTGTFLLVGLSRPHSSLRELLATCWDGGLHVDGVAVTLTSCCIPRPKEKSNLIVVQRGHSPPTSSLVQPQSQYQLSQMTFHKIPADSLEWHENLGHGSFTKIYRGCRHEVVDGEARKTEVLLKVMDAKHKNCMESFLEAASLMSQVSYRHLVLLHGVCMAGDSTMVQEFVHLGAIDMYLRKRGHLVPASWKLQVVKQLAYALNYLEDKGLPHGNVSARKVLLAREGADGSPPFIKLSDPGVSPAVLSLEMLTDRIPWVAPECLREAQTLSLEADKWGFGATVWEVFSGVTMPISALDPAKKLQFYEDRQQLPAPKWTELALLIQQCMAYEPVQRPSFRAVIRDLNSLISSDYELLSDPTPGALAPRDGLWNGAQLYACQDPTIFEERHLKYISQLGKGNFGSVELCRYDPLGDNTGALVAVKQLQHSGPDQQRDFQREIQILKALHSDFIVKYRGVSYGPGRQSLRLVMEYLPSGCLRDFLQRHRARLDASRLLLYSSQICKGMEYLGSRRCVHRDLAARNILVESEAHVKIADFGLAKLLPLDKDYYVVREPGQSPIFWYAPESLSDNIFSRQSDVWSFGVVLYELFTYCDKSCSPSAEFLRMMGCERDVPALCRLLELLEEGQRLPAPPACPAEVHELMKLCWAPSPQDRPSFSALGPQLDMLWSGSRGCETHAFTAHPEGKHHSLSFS

Angiopoietin-1 receptor = Angiopoietin-1 receptor (Homo sapiens, UniProt Q02763); assay: Inhibition of Tie2
T-cell = assay: Inhibition of T cell activation in human mixed lymphocyte reaction; format: functional, cell-based
[4] = biological target: Mitogen-activated protein kinase 14 (Homo sapiens, UniProt Q16539); assay: Inhibition of p38alpha
Sequence of Mitogen-activated protein kinase 14 (Q16539 whole entry): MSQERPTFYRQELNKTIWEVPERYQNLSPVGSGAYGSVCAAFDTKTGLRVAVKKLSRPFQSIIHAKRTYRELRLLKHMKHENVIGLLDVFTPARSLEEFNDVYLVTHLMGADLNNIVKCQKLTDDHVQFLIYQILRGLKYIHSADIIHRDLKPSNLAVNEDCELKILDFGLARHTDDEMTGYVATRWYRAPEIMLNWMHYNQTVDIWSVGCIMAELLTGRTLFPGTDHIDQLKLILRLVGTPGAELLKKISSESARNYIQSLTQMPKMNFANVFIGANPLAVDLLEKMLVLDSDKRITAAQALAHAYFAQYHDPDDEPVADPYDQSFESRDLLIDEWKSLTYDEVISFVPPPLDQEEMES

Sequence of Angiopoietin-1 receptor (Q02763 whole entry): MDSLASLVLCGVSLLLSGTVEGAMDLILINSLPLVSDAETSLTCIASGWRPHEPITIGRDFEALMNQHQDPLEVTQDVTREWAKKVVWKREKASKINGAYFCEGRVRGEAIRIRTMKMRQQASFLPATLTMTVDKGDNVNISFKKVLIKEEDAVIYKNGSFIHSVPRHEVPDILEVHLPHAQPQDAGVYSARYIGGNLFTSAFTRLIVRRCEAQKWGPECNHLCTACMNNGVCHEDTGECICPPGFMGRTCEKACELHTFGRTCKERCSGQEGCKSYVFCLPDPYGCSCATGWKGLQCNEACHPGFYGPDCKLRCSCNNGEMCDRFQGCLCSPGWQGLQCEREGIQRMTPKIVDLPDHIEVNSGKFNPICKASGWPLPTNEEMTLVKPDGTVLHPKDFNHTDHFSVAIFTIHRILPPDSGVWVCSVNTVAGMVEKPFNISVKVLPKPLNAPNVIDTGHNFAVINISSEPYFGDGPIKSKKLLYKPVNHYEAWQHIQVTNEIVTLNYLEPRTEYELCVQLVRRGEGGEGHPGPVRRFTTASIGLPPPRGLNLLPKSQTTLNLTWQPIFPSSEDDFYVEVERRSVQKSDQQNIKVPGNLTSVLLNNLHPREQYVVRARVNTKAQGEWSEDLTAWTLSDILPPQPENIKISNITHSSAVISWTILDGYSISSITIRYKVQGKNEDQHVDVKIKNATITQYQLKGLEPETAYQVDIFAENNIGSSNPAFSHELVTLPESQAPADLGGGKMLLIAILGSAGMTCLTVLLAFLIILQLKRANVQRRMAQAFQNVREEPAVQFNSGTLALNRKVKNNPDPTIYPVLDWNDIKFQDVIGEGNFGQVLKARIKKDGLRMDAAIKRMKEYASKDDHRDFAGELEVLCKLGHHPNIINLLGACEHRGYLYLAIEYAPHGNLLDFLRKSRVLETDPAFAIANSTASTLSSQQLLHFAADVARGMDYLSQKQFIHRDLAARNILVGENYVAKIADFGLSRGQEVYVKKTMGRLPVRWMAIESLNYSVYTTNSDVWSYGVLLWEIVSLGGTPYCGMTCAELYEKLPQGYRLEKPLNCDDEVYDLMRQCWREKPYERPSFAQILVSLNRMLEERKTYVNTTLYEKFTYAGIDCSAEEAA
Sequence of Tyrosine-protein kinase Lck (P06239 whole entry): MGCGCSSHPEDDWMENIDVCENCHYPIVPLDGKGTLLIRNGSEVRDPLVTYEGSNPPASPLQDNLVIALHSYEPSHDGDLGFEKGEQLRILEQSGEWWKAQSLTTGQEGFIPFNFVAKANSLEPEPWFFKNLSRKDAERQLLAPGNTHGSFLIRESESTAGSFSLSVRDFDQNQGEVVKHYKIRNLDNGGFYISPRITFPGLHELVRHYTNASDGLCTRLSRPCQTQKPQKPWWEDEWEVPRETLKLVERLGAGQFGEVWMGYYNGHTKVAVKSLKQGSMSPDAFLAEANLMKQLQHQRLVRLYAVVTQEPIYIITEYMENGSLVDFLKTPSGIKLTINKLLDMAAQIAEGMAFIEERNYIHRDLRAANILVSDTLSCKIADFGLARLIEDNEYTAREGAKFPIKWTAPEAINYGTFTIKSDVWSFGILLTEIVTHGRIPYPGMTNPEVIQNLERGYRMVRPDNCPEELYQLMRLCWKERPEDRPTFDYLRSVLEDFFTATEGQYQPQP
Sequence of Vascular endothelial growth factor receptor 2 (P35968 whole entry): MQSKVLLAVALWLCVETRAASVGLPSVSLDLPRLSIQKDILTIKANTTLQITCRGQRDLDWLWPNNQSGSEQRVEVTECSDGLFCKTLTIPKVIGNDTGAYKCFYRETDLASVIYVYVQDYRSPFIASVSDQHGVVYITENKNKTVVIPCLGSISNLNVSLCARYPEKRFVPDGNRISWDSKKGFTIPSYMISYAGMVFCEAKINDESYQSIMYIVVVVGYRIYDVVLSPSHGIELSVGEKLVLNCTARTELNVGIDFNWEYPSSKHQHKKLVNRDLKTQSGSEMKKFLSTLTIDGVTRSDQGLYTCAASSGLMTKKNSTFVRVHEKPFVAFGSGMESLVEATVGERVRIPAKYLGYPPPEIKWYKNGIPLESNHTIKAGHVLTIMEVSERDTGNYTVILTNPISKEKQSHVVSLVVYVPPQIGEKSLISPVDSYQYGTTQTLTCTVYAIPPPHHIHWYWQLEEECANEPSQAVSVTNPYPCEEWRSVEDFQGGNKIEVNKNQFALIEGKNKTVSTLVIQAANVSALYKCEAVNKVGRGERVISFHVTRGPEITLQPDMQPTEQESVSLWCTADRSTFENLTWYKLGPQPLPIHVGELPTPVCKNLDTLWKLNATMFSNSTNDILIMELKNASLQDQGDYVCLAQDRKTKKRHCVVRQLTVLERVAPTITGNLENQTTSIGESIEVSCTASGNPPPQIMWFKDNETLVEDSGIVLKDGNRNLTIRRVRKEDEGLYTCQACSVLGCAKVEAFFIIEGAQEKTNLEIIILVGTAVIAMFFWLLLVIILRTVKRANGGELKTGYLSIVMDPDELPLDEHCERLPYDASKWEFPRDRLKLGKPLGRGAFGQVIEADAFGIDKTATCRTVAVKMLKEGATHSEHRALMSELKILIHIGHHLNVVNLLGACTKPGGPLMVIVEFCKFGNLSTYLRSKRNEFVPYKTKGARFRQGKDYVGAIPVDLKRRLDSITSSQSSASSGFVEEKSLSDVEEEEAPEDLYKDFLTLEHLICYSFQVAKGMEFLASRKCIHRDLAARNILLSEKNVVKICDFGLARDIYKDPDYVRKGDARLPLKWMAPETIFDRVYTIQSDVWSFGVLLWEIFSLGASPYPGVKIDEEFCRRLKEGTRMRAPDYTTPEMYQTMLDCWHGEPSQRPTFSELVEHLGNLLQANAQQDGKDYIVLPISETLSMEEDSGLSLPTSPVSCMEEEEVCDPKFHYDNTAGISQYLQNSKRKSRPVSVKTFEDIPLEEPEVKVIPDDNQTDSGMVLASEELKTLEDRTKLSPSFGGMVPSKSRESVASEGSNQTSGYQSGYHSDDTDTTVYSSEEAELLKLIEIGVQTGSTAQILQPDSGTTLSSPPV

SMILES	pIC50 [1]	pIC50 [2]	pIC50 [3]	pIC50 (Angiopoietin-1 receptor)	pIC50 (T-cell)	pIC50 [4]
CNc1ncc(C(=O)Nc2cc(C(=O)Nc3cccc(C(F)(F)F)c3)ccc2C)c(Oc2ccccc2)n1	7.60	< 4.60	< 4.60	< 4.60	< 5.00	
CNc1ncc(C(=O)Nc2cc(C(=O)Nc3cccc(C(F)(F)F)c3F)ccc2C)c(OC)n1	8.15	< 4.60	< 4.60	< 4.60	< 5.00	6.60
Cc1ccc(C(=O)Nc2cccc(C(F)(F)F)c2)cc1-c1ccc2nc(N)ncc2c1				8.70		
COc1nc(NCCN2CCOCC2)ncc1C(=O)Nc1cc(C(=O)Nc2cccc(C(F)(F)F)c2)ccc1C	7.66	5.69	< 4.60	< 4.60	5.31	
COc1nc(NCCCN2CCN(C)CC2)ncc1C(=O)Nc1cc(C(=O)Nc2cccc(C(F)(F)F)c2C)ccc1C	7.72	< 4.60	< 4.60	< 4.60	5.57	
Cc1ccc(C(=O)Nc2cccc(C(F)(F)F)c2)cc1NC(=O)c1cnc(NCCN2CCOCC2)nc1Oc1ccccc1	7.39	< 4.60	< 4.60	< 4.60	< 5.00	
COc1nc(NCCCCN(C)C)ncc1C(=O)Nc1cc(C(=O)Nc2cccc(C(F)(F)F)c2C)ccc1C	7.35	< 4.60	< 4.60	< 4.60		
CNc1ncc(C(=O)Nc2cc(C(=O)Nc3cccc(C(F)(F)F)c3C)ccc2C)c(OC)n1	7.36	< 4.60	< 4.60	< 4.60	< 5.00	< 5.00

Further lines, results first:

pIC50 [1]	pIC50 [2]	pIC50 [3]	pIC50 (Angiopoietin-1 receptor)	pIC50 (T-cell)	pIC50 [4]	SMILES
7.08	5.18	< 4.60	< 4.60		8.62	CNc1ncc(C(=O)Nc2cc(C(=O)Nc3cccc(C(F)(F)F)c3F)ccc2C)c(NC)n1
7.28	5.08	< 4.60	< 4.60	< 5.00	5.57	CNc1ncc(C(=O)Nc2cc(C(=O)Nc3cccc(C(F)(F)F)c3)ccc2C)c(OC)n1
7.00	< 4.60	< 4.60	< 4.60			COc1nc(NC2CCN(C)CC2)ncc1C(=O)Nc1cc(C(=O)Nc2cccc(C(F)(F)F)c2)ccc1C
9.22	6.59	6.48	5.46	6.97	6.07	COc1nc(Nc2ccc(N3CCN(C)CC3)cc2)ncc1C(=O)Nc1cc(C(=O)Nc2cccc(C(F)(F)F)c2F)ccc1C
